Assay results from ChEMBL document CHEMBL1201862, “PubChem BioAssay data set” (2004).
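In this assay, cells in 96-well plates receive the compound at five concentrations for 48 hours. Endpoints are linearly interpolated between the surrounding concentrations. GI50 = concentration required for 50% inhibition of growth.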 The source made the active and inactive calls. Cut-off read from the data, not from the text of the source: active = GI50 up to about 1.1 µM and inactive = higher.

Tests used:
Experiment in all cases: NCI tumour cell line growth inhibition, 48 h
[1] = test system: SF-268
[2] = test system: NCI-H23
[3] = test system: MDA-MB-231
[4] = test system: SF-539
[5] = test system: SK-MEL-2
[6] = test system: 786-0
[7] = test system: TK-10
[8] = test system: DU-145
[9] = test system: HCC 2998
[10] = test system: SR
[11] = test system: M14
[12] = test system: ACHN
[13] = test system: UACC-257
[14] = test system: LOX IMVI
[15] = test system: SNB-19
[16] = test system: NCI-H522
[17] = test system: SK-MEL-28
[18] = test system: HCT-15
[19] = test system: MDA-MB-435
[20] = test system: HL-60

| Structure (SMILES) | GI50 [1] | GI50 [2] | GI50 [3] | GI50 [4] | GI50 [5] | GI50 [6] | GI50 [7] | GI50 [8] | GI50 [9] | GI50 [10] | GI50 [11] | GI50 [12] | GI50 [13] | GI50 [14] | GI50 [15] | GI50 [16] | GI50 [17] | GI50 [18] [µM] | GI50 [19] | GI50 [20] |
| --- | --- | --- | --- | --- | --- | --- | --- | --- | --- | --- | --- | --- | --- | --- | --- | --- | --- | --- | --- | --- |
| CCn1c(=O)c2nc(SC)sc2n(-c2ccc(C)cc2)c1=O | > 100 µM (inactive) | > 100 µM (inactive) | > 100 µM (inactive) | > 100 µM (inactive) | 66.4 µM (inactive) | 0.401 µM (active) | > 100 µM (inactive) | > 100 µM (inactive) | > 100 µM (inactive) | > 100 µM (inactive) | 6.68 µM (inactive) | > 100 µM (inactive) | > 100 µM (inactive) | > 100 µM (inactive) | > 100 µM (inactive) | > 100 µM (inactive) | > 100 µM (inactive) | > 100 | 2.17 µM (inactive) | > 100 µM (inactive) |
| Oc1nc2nc3ccccc3nc2nc1O | > 100 µM (inactive) | > 100 µM (inactive) | > 100 µM (inactive) | > 100 µM (inactive) | > 100 µM (inactive) | > 100 µM (inactive) | > 100 µM (inactive) | > 100 µM (inactive) | > 100 µM (inactive) | > 100 µM (inactive) | > 100 µM (inactive) | > 100 µM (inactive) | > 100 µM (inactive) | > 100 µM (inactive) | > 100 µM (inactive) | > 100 µM (inactive) | > 100 µM (inactive) | > 100 | > 100 µM (inactive) | > 100 µM (inactive) |
| CC(C)(CN)CN | > 100 µM (inactive) | > 100 µM (inactive) | > 100 µM (inactive) | > 100 µM (inactive) | > 100 µM (inactive) | > 100 µM (inactive) | > 100 µM (inactive) | > 100 µM (inactive) | > 100 µM (inactive) | > 100 µM (inactive) | > 100 µM (inactive) | > 100 µM (inactive) | > 100 µM (inactive) | > 100 µM (inactive) | > 100 µM (inactive) | > 100 µM (inactive) | > 100 µM (inactive) | > 100 | > 100 µM (inactive) | > 100 µM (inactive) |
| COc1cccc(C2c3cc4c(cc3OC(NNc3ccccc3)C2C)OCO4)c1OC (stereo not given) | 23.1 µM (inactive) | 10.7 µM (inactive) | 17.5 µM (inactive) | 4.14 µM (inactive) | 10.1 µM (inactive) | 19.4 µM (inactive) | 2.61 µM (inactive) | 5.19 µM (inactive) | 2.29 µM (inactive) | 1.06 µM (active) | 5.06 µM (inactive) | 1.65 µM (inactive) | 5.06 µM (inactive) | 16.5 µM (inactive) | 17.6 µM (inactive) | 2.07 µM (inactive) | 24.2 µM (inactive) | 2.18 | 3.04 µM (inactive) | 4.05 µM (inactive) |
| COc1cc(Br)c(OC)c2c(OC)cc(C)cc12 | > 100 µM (inactive) | > 100 µM (inactive) | 89.9 µM (inactive) | > 100 µM (inactive) | > 100 µM (inactive) | 75.7 µM (inactive) | > 100 µM (inactive) | > 100 µM (inactive) | > 100 µM (inactive) | 0.731 µM (active) | 64.7 µM (inactive) | > 100 µM (inactive) | > 100 µM (inactive) | > 100 µM (inactive) | > 100 µM (inactive) | > 100 µM (inactive) | > 100 µM (inactive) | > 100 | 70.6 µM (inactive) | 14.7 µM (inactive) |
| O=[N+]([O-])c1ccc(S(=O)(=O)Cc2ccccc2)c([N+](=O)[O-])c1 | 3.16 µM (inactive) | 1.9 µM (inactive) | 2.11 µM (inactive) | 1.99 µM (inactive) | 2.82 µM (inactive) | 1.58 µM (inactive) | 1.88 µM (inactive) | 3.63 µM (inactive) | 7.43 µM (inactive) | 0.247 µM (active) | 1.87 µM (inactive) | 1.58 µM (inactive) | 1.67 µM (inactive) | 1.79 µM (inactive) | 17.6 µM (inactive) | 0.748 µM (active) | 4.06 µM (inactive) | 1.82 | 1.75 µM (inactive) | 1.91 µM (inactive) |
| N#Cc1c(-c2ccc(Cl)cc2)cc(-c2ccc(Nc3ccnc4cc(C(F)(F)F)ccc34)cc2)[nH]c1=O | > 66.4 µM (inactive) | > 45 µM (inactive) | 19.3 µM (inactive) | 6.65 µM (inactive) | 57.4 µM (inactive) | 12.4 µM (inactive) | 24.4 µM (inactive) | 22.9 µM (inactive) | > 100 µM (inactive) | 2.72 µM (inactive) | 4.31 µM (inactive) | > 100 µM (inactive) | 37.2 µM (inactive) | 2.94 µM (inactive) | 9.73 µM (inactive) | 50 µM (inactive) | 8.49 µM (inactive) | > 100 | 3.33 µM (inactive) | 10.8 µM (inactive) |
| O=c1[nH]c2ccccc2nc1CBr | 11.1 µM (inactive) | 14.6 µM (inactive) | 11.2 µM (inactive) | 9.23 µM (inactive) | 8.24 µM (inactive) | 2.02 µM (inactive) | 13.8 µM (inactive) | 19.2 µM (inactive) | 20.6 µM (inactive) | 0.415 µM (active) | 10.6 µM (inactive) | 12.3 µM (inactive) | 13.2 µM (inactive) | 0.912 µM (active) | 23.5 µM (inactive) | 0.638 µM (active) | 12.1 µM (inactive) | 8.95 | 12.3 µM (inactive) | 0.213 µM (active) |
| Cc1cc(-c2nc3ccccc3s2)ccc1N | 52 µM (inactive) | 40.4 µM (inactive) | 38.6 µM (inactive) | > 71.1 µM (inactive) | 56.4 µM (inactive) | 57.8 µM (inactive) | 0.0302 µM (active) | 46.6 µM (inactive) | 5.98 µM (inactive) | 25.6 µM (inactive) | 36.8 µM (inactive) | 45.4 µM (inactive) | 81.5 µM (inactive) | 31.6 µM (inactive) | > 70.1 µM (inactive) | 18.5 µM (inactive) | > 76.6 µM (inactive) | 42.3 | 56.9 µM (inactive) | 15.7 µM (inactive) |
